Assay results as given in PubChem BioAssay (NCI).
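Briefly, cells in 96-well plates were exposed to five compound concentrations for 48 h, and endpoints were estimated by linear interpolation. The concentration for 50% growth inhibition is given as GI50. TGI: total growth inhibition.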

Assays:
Test in all cases: inhibition of tumour cell growth, NCI panel, 48 h
[1] = test system: CAKI-1 renal
[2] = test system: KM12 colon
[3] = test system: OVCAR-3 ovarian
[4] = test system: MOLT-4 leukemia
[5] = test system: HOP-92 NSCLC
[6] = test system: RXF 393 renal
[7] = test system: SF-295 CNS
[8] = test system: HCT-15 colon
[9] = test system: CCRF-CEM leukemia
[10] = test system: MALME-3M melanoma

Which TGI [1] does the source give for `CCOC(=O)Cc1nc(/C(C#N)=C/c2ccco2)[nH]c(=O)c1C#N` here?
Its TGI is over 100 µM.

What about the TGI [2] of the same compound?
Its TGI is over 100 µM.

And the TGI [3]?
The TGI was over 100 µM.

What about the TGI [4] of the same compound?
Its TGI is over 100 µM.

What about the TGI [5] of the same compound?
The TGI was over 100 µM.

What about the TGI [6] of the same compound?
The TGI was over 100 µM.

And the TGI [7]?
Its TGI is over 100 µM.

And the TGI [8]?
Its TGI is over 100 µM.

What about the TGI [9] of the same compound?
Its TGI is over 100 µM.

`COC(=O)c1c(O)ccc2[nH]c(C)c(C#N)c12` was tested. Which GI50 [1] did it give?
The GI50 was 30.4 µM.

What about the TGI [1] of the same compound?
Its TGI is 90.1 µM.

What about the GI50 [2] of the same compound?
Its GI50 is 39.5 µM.

And the TGI [2]?
Its TGI is over 100 µM.

What about the GI50 [3] of the same compound?
Its GI50 is 31.4 µM.

What about the TGI [3] of the same compound?
The TGI was over 100 µM.

What about the GI50 [4] of the same compound?
Its GI50 is 26.7 µM.

And the TGI [4]?
Its TGI is over 100 µM.

And the GI50 [5]?
The GI50 was 30.3 µM.

And the TGI [5]?
Its TGI is 91.9 µM.

And the GI50 [6]?
Its GI50 is 22 µM.

And the TGI [6]?
Its TGI is over 100 µM.

And the GI50 [7]?
Its GI50 is 27.4 µM.

What about the TGI [7] of the same compound?
Its TGI is 92.9 µM.

What about the GI50 [8] of the same compound?
Its GI50 is 42.1 µM.

And the TGI [8]?
The TGI was over 100 µM.

And the GI50 [10]?
Its GI50 is 47.9 µM.

What about the TGI [10] of the same compound?
Its TGI is 94 µM.

Which results are given for `FC(F)(F)c1ccc2c(Nc3cccc(C4CC(c5ccccc5)=NN4c4ccc(Cl)cc4)c3)ccnc2c1` (configuration not stated)?
GI50 [2]: 3.16 µM; TGI [2]: 16.7 µM; GI50 [3]: 2.21 µM; TGI [3]: 6.02 µM; GI50 [4]: 3.6 µM; TGI [4]: 19.5 µM; GI50 [5]: 3.21 µM; TGI [5]: 40.5 µM; GI50 [6]: 4.82 µM; TGI [6]: 20.1 µM; GI50 [7]: 2.25 µM; TGI [7]: 8.67 µM; GI50 [8]: 1.61 µM; TGI [8]: 4.26 µM; GI50 [10]: 4.38 µM; TGI [10]: 21 µM; GI50 [9]: 3.32 µM; TGI [9]: 38.5 µM

What does the source list for `CC(O)CN1C(=O)NC(Cc2ccccc2)C1=O` (configuration not stated)?
TGI [1]: > 100 µM; TGI [2]: > 100 µM; TGI [5]: > 100 µM; TGI [6]: > 100 µM; TGI [7]: > 100 µM

How did the GI50 [1] turn out when `Cc1ccc2/c(=C/c3ccc(N(C)C)cc3)c3cc(-c4ccccc4)[n+](C)n3c2c1` was run?
The GI50 was 1.57 µM.

What about the TGI [1] of the same compound?
The TGI was 6.58 µM.

What about the GI50 [2] of the same compound?
Its GI50 is 0.0209 µM.

What about the TGI [2] of the same compound?
Its TGI is 0.12 µM.

What about the GI50 [3] of the same compound?
Its GI50 is 1.1 µM.

And the TGI [3]?
The TGI was 47.5 µM.

And the GI50 [4]?
Its GI50 is 0.0383 µM.

And the TGI [4]?
The TGI was over 100 µM.

And the GI50 [7]?
Its GI50 is 0.352 µM.

And the TGI [7]?
Its TGI is 3.31 µM.

What about the GI50 [8] of the same compound?
Its GI50 is 0.824 µM.

And the TGI [8]?
The TGI was over 100 µM.

What about the GI50 [10] of the same compound?
Its GI50 is 0.0285 µM.

And the TGI [10]?
Its TGI is 1.17 µM.

And the GI50 [9]?
Its GI50 is 0.0269 µM.

For `CC1CCCC(C(=O)/C(=C/c2cccc(Cl)c2)C(=O)C(=O)O)C1` (configuration not stated), which TGI [1] is on record?
The TGI was over 100 µM.

What about the TGI [2] of the same compound?
Its TGI is 30.6 µM.

What about the TGI [3] of the same compound?
Its TGI is 55.4 µM.

What about the TGI [4] of the same compound?
Its TGI is 49.8 µM.

What about the TGI [5] of the same compound?
Its TGI is over 100 µM.

What about the TGI [7] of the same compound?
The TGI was over 100 µM.

And the TGI [8]?
The TGI was 28.2 µM.

And the TGI [10]?
Its TGI is over 100 µM.

What about the TGI [9] of the same compound?
Its TGI is 48.3 µM.

For `COc1cc(/C=C\c2ccc(O)cc2)cc(OC)c1OC`, which TGI [1] is on record?
Its TGI is over 100 µM.

And the TGI [2]?
Its TGI is over 100 µM.

What about the TGI [3] of the same compound?
Its TGI is 6.24 µM.

And the TGI [4]?
Its TGI is over 100 µM.

What about the TGI [6] of the same compound?
The TGI was over 25.1 µM.

And the TGI [7]?
The TGI was 5.48 µM.

What about the TGI [8] of the same compound?
Its TGI is over 100 µM.

And the TGI [10]?
Its TGI is over 40.9 µM.

And the TGI [9]?
The TGI was over 100 µM.

Which GI50 [1] does the source give for `COc1ccc(-c2cc(-c3cc(Cl)ccc3Cl)nc3nc(=S)[nH]c(N)c23)cc1` here?
The GI50 was 10.6 µM.

What about the TGI [1] of the same compound?
Its TGI is 62.1 µM.

What about the GI50 [2] of the same compound?
Its GI50 is 26.8 µM.

And the TGI [2]?
The TGI was over 100 µM.

And the GI50 [3]?
Its GI50 is 45.1 µM.

What about the TGI [3] of the same compound?
The TGI was over 100 µM.

And the GI50 [4]?
The GI50 was 6.36 µM.

And the TGI [4]?
Its TGI is over 100 µM.

What about the GI50 [5] of the same compound?
The GI50 was 11.8 µM.

And the TGI [5]?
Its TGI is over 100 µM.

And the GI50 [7]?
Its GI50 is 17.1 µM.

And the TGI [7]?
The TGI was 46.5 µM.

And the GI50 [8]?
The GI50 was 17.5 µM.

And the TGI [8]?
The TGI was over 100 µM.

What about the GI50 [9] of the same compound?
Its GI50 is 26.6 µM.

What about the TGI [9] of the same compound?
Its TGI is over 100 µM.

`CN1CCN(C)C1c1cccc(C2N(C)CCN2C)c1` was tested. Which TGI [2] did it give?
The TGI was over 100 µM.

And the TGI [3]?
The TGI was over 100 µM.

What about the TGI [4] of the same compound?
The TGI was over 100 µM.

And the TGI [5]?
The TGI was over 100 µM.

And the TGI [6]?
Its TGI is over 100 µM.

What about the TGI [7] of the same compound?
Its TGI is over 100 µM.

What about the TGI [8] of the same compound?
Its TGI is over 100 µM.

What about the TGI [9] of the same compound?
Its TGI is over 100 µM.
